Measurements taken from patent US20240219394A1, “METHOD FOR MEASURING RESPONSE OF OLFACTORY RECEPTOR TO SUBSTANCE” (AJINOMOTO CO., INC., priority 2021, published 2024).

Tested on: control cells (HEK293T cells transfected with the empty vector Rho-pME18S)
Experiment: Luciferase assay: response of control cells to adenosine
Assay type: cell-based, human
Conditions: FIG. 1
Method: HEK293T cells expressing each of the 352 kinds of olfactory receptors were prepared according to the following procedure. […] The gene mixture and transfection reagent mixture were mixed, dispensed into each well of a poly-D-lysine-coated 384-well plate in a volume of 12.5 μL, and allowed to stand for 15 minutes in a clean bench. The HEK293T cells inoculated in 10-cm petri dishes on the previous day (2.5×10^6 cells/10 cm petri dish) were prepared at a density of 1.2×10^5 cells/mL, inoculated into each well of the 384-well plate in a volume of 25 μL, and cultured overnight in an incubator maintained at 37° C. and 5% C02. […]
The 352 olfactory receptors expressed in HEK293T cells couple with Golf to activate adenylate cyclase, thereby increasing the amount of intracellular cAMP. In this example, responses of the olfactory receptors to the test substances were measured by using a luciferase reporter gene assay, in which increase in intracellular cAMP amount is monitored as an increase in firefly luciferase-derived luminescence. […] In addition, luminescence value derived from Renilla luciferase was used as an internal standard to correct errors due to differences of gene transfer efficiency and cell number among the wells. […]

Nc1ncnc2c1ncn2[C@@H]1O[C@H](CO)[C@@H](O)[C@H]1O [adenosine]
Response of control cells to adenosine (Luc/hRluc value, increase in cAMP): caused increase in cAMP
